Results taken from patent US11370761B2, “Voltage-dependent T-type calcium channel inhibitor” (Nippon Chemiphar Co., Ltd., priority 2017, dated 2022).

Legend:
human Cav3.2 channel [1] = molecular target: T1, human Cav3.2 channel (Homo sapiens, UniProt O95180); test: Intracellular calcium concentration measurement in human Cav3.2 channel expressing stable cell line (Pharmacological Test 1); type: cell-based; settings: HEK293 cells stably expressing human Cav3.2, Fluo-4 AM fluorescence, KCl stimulation; read-out: Cav3.2 channel inhibitory action
T1 construct: expressed in transfected cells
Source text: (1) Construction of Human Cav3.2 Channel Expressing Stable Cell Line
A sequence in which a HindIII site and a kozak sequence (GCCACC) was provided on a 5′ side of a human Cav3.2 channel open reading frame (ORF) gene and a KpnI site was provided on a 3′ side thereof was incorporated into pcDNA3.1(+) (Thermo Fisher Scientific #V790-20), and the resultant was transfected into a HEK293 cell (ATCC No. CRL-1573) according to a protocol of FuGENE (registered trademark) HD Transfection Reagent (Promega #E2311).
(2) Method of Measuring Intracellular Calcium Concentration
The human Cav3.2 channel expressing stable cell line prepared by the test method (1) was seeded in a 96-well plate using a Dulbecco's modified Eagle's medium (DMEM medium) containing 10% fetal bovine serum (FBS), followed by culturing 37° C. for 48 hours under a 5% CO2 condition. Thereafter, the medium was removed, and each well washed with an A buffer was treated with 80 μL of a fluorescent dye solution containing a liquid mixture of 22 μg of a calcium fluorescent indicator Fluo-4 AM (Dojindo Molecular Technologies, Inc., #F311), 20 μL of dimethyl sulfoxide (DMSO), 1 μL of 10% Pluronic F-127 (Thermo Fisher Scientific #P6866), and 4 mL of the A buffer. After being left to stand for 45 minutes at room temperature under a light shielding condition, the cells were washed with a B buffer. In DMSO having the same final concentration as the test compound as a negative control, and the test compound dissolved in DMSO to have a final concentration of 0.1%, each test compound concentration solution containing the B buffer was added to each well. The cells were left to stand for additional 15 minutes at room temperature under a light shielding condition, and were measured using microplate reader EnVision (PerkinElmer Co., Ltd.) by the following method. First, after measuring background fluorescence in each well, an ionophore was added, and baseline fluorescence was measured. Thereafter, B buffer containing added KCl at a concentration of 83.8 mM was added to each well, and an increase in fluorescence due to calcium influx caused by the stimulation was measured for 10 seconds. Inhibition percentage was calculated from the maximum fluorescence increase value from the baseline, and an IC50 value was calculated by plotting a logarithmic value of the test compound concentration and inhibition activity. The measurement was performed by observing fluorescence of 510 nm emitted when the cells were irradiated with excitation light of 485 nm.
A buffer: 140 mM NaCl, 5 mM KCl, 1 mM MgCl2, 0.5 mM CaCl2, 10 mM Glucose, 10 mM HEPES, pH 7.3
B buffer: potassium equilibrium potential: −92 mV

human Cav3.2 channel [2] = molecular target: T1, human Cav3.2 channel; test: Electrophysiological evaluation, automated whole-cell patch clamp of Cav3.2 channel current (Pharmacological Test 2); type: cell-based; settings: for inhibition at 0.3 µM: read-out: Cav3.2 channel current inhibition rate in test compound of 0.3 μM (holding potential of −80 mV) (%); for inhibition at 3 µM: 3 μM test compound, holding potential −100 mV, read-out: Cav3.2 channel current inhibition rate in test compound of 3 μM (holding potential of −100 mV) (%)
Method: The human Cav3.2 channel expressing stable cell line prepared by the test method (1) of Example 36 was seeded in a 10-cm dish using a DMEM medium containing 10% FBS, followed by culturing 37° C. for 24 hours under a 5% CO2 condition. The cells were detached using Accutase, and suspended in ice-cooled extracellular fluid for use. A Cav3.2 channel current was measured using an automated patch clamp system (Port-a-Patch; Nanion Technologies, EPC-10; HEKA Elektronik GmbH, Patchmaster; HEKA Elektronik GmbH) and buffers shown below, by a whole-cell patch-clamp method. The measurement of the Cav3.2 channel current was performed at room temperature, a measurement condition was a holding potential of −80 mV, a depolarization potential was −20 mV, a depolarization time was 100 msec, and a depolarization frequency was 10 sec. The Cav3.2 channel current was a peak value of an inward current observed at the time of depolarization to −20 mV.
The test compound was obtained by diluting a DMSO solution 1000 times with extracellular fluid to prepare a solution having a target concentration. The test compound was applied using an external perfusion system (Nanion Technologies) until the Cav3.2 channel current was stabilized, and a maximum of five concentrations from the low concentration side were cumulatively applied. An inhibition rate of the test compound was calculated from a change rate between a current value immediately before application of the test compound and the Cav3.2 channel current after application of the test compound (in a condition of holding potential of −80 mV, a concentration of the test compound was 0.3 μM, and in a condition of holding potential of −100 mV, a concentration of the test compound was 3 μM).
Extracellular fluid: 135 mM NaCl, 4 mM KCl, 1 mM MgCl2, 5 mM CaCl2, 5 mM D-Glucose, 10 mM HEPES, pH 7.4
Electrode internal fluid: 10 mM NaCl, 10 mM HEPES, 50 mM CsCl, 60 mM Cs-Fluoride, 20 mM EGTA, pH 7.2

[3] = 0.3 μM test compound, holding potential −80 mV, depolarization to −20 mV

T1 sequence (O95180 whole entry): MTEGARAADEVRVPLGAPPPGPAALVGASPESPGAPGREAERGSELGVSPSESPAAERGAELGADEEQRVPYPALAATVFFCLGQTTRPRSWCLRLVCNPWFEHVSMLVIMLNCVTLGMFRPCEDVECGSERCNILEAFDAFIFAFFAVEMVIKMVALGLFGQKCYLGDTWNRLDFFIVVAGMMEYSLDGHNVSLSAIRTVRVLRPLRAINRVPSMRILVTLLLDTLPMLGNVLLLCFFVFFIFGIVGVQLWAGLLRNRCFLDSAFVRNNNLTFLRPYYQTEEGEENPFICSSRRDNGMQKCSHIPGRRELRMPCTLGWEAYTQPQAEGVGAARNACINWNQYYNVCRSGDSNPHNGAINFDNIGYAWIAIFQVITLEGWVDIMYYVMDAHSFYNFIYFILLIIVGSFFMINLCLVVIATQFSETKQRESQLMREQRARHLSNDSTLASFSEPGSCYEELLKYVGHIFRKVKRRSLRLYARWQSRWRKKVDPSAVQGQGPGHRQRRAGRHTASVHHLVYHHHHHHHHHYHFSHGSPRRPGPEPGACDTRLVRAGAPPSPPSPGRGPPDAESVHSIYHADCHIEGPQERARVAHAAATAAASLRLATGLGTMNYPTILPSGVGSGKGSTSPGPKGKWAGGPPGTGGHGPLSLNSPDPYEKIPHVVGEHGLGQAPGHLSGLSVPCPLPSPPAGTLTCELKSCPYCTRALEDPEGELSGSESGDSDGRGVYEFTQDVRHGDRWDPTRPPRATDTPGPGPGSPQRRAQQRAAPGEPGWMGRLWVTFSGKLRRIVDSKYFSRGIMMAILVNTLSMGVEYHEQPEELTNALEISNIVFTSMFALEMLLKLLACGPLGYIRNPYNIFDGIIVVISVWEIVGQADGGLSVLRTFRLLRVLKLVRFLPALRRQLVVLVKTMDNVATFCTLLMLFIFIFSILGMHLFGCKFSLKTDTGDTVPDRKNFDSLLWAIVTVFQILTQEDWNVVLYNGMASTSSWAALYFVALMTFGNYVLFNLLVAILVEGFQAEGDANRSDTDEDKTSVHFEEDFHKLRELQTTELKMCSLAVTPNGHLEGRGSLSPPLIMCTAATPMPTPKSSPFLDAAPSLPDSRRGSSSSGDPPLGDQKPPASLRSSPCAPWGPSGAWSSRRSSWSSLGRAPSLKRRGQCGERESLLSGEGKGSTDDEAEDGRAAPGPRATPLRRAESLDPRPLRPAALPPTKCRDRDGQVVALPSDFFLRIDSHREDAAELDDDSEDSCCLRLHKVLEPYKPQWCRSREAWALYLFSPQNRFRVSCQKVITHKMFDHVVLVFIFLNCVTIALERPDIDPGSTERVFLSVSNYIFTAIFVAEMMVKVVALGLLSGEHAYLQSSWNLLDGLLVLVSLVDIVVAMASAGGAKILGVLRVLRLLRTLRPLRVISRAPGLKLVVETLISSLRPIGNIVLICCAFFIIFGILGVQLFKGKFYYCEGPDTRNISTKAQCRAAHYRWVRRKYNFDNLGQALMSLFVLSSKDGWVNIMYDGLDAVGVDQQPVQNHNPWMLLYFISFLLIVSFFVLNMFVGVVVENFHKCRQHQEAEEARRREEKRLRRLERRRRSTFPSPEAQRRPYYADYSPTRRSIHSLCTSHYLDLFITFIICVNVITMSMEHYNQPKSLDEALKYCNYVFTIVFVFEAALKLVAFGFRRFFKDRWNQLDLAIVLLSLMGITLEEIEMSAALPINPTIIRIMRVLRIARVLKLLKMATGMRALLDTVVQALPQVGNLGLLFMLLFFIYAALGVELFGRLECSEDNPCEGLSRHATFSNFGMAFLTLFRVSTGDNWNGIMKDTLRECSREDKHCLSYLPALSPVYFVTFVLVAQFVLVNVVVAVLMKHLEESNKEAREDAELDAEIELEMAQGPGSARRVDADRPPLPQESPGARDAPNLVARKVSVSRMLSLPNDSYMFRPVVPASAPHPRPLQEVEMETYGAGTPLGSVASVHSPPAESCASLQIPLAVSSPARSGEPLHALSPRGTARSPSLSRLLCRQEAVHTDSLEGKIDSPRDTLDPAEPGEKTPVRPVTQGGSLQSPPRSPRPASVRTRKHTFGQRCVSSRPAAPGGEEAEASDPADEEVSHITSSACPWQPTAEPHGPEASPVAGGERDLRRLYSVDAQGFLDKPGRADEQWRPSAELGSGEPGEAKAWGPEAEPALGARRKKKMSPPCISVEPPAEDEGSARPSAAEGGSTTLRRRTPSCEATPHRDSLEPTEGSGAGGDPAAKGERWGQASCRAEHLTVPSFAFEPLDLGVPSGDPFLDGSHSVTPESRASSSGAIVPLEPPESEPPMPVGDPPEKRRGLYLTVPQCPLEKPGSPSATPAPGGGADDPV

| SMILES | IC50 (human Cav3.2 channel [1]) [nM] | inhibition at 0.3 µM (human Cav3.2 channel [2]; [3]) [%] | inhibition at 3 µM (human Cav3.2 channel [2]) [%] | Cav3.2 channel current inhibition rate in test compound of 0.3 μM (holding potential of −80 mV) (%) (human Cav3.2 channel [2]; 0.3 μM test compound, holding potential −80 mV, depolarization to −20 mV, 0.3 µM) |
| --- | --- | --- | --- | --- |
| O=C(CNC(=O)[C@@H]1C[C@H]1c1nc2ccccc2[nH]1)Nc1ccc(C(F)(F)F)cc1 (relative stereo) [Example 20, Trans-2-(1H-benzo[d]imidazol-2-yl)-N-(2-oxo-2-((4-(trifluoromethyl)phenyl)amino)ethyl) cyclopropane-1-carboxamide] | 100 to 1000 | 39 | 32 |  |
| O=C(NC1(C(=O)Nc2ccc(C(F)(F)F)cc2)CC1)[C@@H]1C[C@H]1c1nc2ccccc2[nH]1 (relative stereo) [Example 21, Trans-1-(2-(1H-benzo[d]imidazol-2-yl)cyclopropane-1-carboxamido)-N-(4-(trifluoromethyl)phenyl) cyclopropane-1-carboxamide] | 100 to 1000 | 51 | 41 |  |
| CCCc1ccc(NC(=O)C(C)NC(=O)C2CC2c2nc3ccccc3[nH]2)cc1 (single isomer, unassigned) [Example 1A, Trans-2-(1H-benzo[d]imidazol-2-yl)-N-(1-oxo-1-((4-propylphenyl)amino)propan-2-yl) cyclopropane-1-carboxamide] | 100 to 1000 | 86 |  |  |
| CC(NC(=O)C1CC1c1nc2ccccc2[nH]1)C(=O)Nc1ccc(C(F)(F)F)cc1 (single isomer, unassigned) [Example 4A, Trans-2-(1H-benzo[d]imidazol-2-yl)-N-(1-oxo-1-((4-(trifluoromethyl)phenyl)amino)propan-2-yl) cyclopropane-1-carboxamide] | 100 to 1000 | 43 | 38 |  |
| CC(NC(=O)C1CC1c1nc2ccccc2[nH]1)C(=O)Nc1ccc(C(F)(F)F)cc1 (single isomer, unassigned) [Example 4B, Trans-2-(1H-benzo[d]imidazol-2-yl)-N-(1-oxo-1-((4-(trifluoromethyl)phenyl)amino)propan-2-yl) cyclopropane-1-carboxamide] | 100 to 1000 |  |  | 23 |
| CC(NC(=O)C1CC1c1nc2ccccc2[nH]1)C(=O)Nc1ccc(C(C)(C)C)cc1 (single isomer, unassigned) [Example 7A, Trans-2-(1H-benzo[d]imidazol-2-yl)-N-(1-((4-(tert-butyl)phenyl)amino)-1-oxopropan-2-yl) cyclopropane-1-carboxamide] | 100 to 1000 | 30 |  |  |
| CC(NC(=O)C1CC1c1nc2ccccc2[nH]1)C(=O)Nc1cnc(Br)cn1 (single isomer, unassigned) [Example 18A, Trans-2-(1H-benzo[d]imidazol-2-yl)-N-(1-((5-bromopyrazin-2-yl)amino)-1-oxopropan-2-yl) cyclopropane-1-carboxamide] | 100 to 1000 | 46 |  |  |
| O=C(NC1(C(=O)Nc2cccc(C(F)(F)F)c2)CC1)[C@H]1C[C@@H]1c1nc2ccccc2[nH]1 [Example 22, 1-((1S, 2S)-2-(1H-Benzo[d]imidazol-2-yl)cyclopropane-1-carboxamido)-N-(3-(trifluoromethyl)phenyl) cyclopropane-1-carboxamide] | ≤ 100 | 95 |  |  |
| O=C(NC1(C(=O)Nc2ccc(OC(F)(F)F)cc2)CC1)[C@H]1C[C@@H]1c1nc2ccccc2[nH]1 [Example 24, 1-((1S, 2S)-2-(1H-Benzo[d]imidazol-2-yl)cyclopropane-1-carboxamido)-N-(4-(trifluoromethoxy)phenyl) cyclopropane-1-carboxamide] | ≤ 100 | 68 |  |  |
| CC(C)C[C@@H](NC(=O)[C@H]1C[C@@H]1c1nc2ccccc2[nH]1)C(=O)Nc1cccc(C(F)(F)F)c1 [Example 37, (1S, 2S)-2-(1H-Benzo[d]imidazol-2-yl)-N—((R)-4-methyl-1-oxo-1-((3-(trifluoromethyl)phenyl)amino)pentan-2-yl) cyclopropane-1-carboxamide] | 100 to 1000 |  |  |  |
| O=C(CNC(=O)[C@H]1C[C@@H]1c1nc2ccccc2[nH]1)Nc1cccc(C(F)(F)F)c1 [Example 39, (1S, 2S)-2-(1H-Benzo[d]imidazol-2-yl)-N-(2-oxo-2-((3-(trifluoromethyl)phenyl)amino)ethyl) cyclopropane-1-carboxamide] | ≤ 100 |  |  |  |
| O=C(NC1(C(=O)Nc2cccc(C(F)(F)F)c2)CC1)[C@H]1C[C@@H]1c1nc2ccccc2n1C1CC1 [Example 40, 1-((1S, 2S)-2-(1-Cyclopropyl-1H-benzo[d]imidazol-2-yl)cyclopropane-1-carboxamido)-N-(3-(trifluoromethyl)phenyl) cyclopropane-1-carboxamide] | ≤ 100 |  |  |  |
| O=C(NC1(C(=O)Nc2cccc(C(F)(F)F)c2F)CC1)[C@H]1C[C@@H]1c1nc2ccccc2[nH]1 [Example 41, 1-((1S, 2S)-2-(1H-Benzo[d]imidazol-2-yl)cyclopropane-1-carboxamido)-N-(2-fluoro-3-(trifluoromethyl)phenyl) cyclopropane-1-carboxamide] | 100 to 1000 |  |  |  |
| O=C(NC1(C(=O)Nc2cc(F)cc(C(F)(F)F)c2)CC1)[C@H]1C[C@@H]1c1nc2ccccc2[nH]1 [Example 42, 1-((1S, 2S)-2-(1H-Benzo[d]imidazol-2-yl)cyclopropane-1-carboxamido)-N-(3-fluoro-5-(trifluoromethyl)phenyl) cyclopropane-1-carboxamide] | 100 to 1000 |  |  |  |
| O=C(NC1(C(=O)Nc2cccc(OC(F)(F)F)c2)CC1)[C@H]1C[C@@H]1c1nc2ccccc2[nH]1 [Example 43, 1-((1S, 2S)-2-(1H-Benzo[d]imidazol-2-yl)cyclopropane-1-carboxamido)-N-(3-(trifluoromethoxy)phenyl) cyclopropane-1-carboxamide] | ≤ 100 |  |  |  |
| C[C@@H](NC(=O)C1CC1c1nc2ccccc2[nH]1)c1cnc(OCC(F)(F)F)cn1 (some centres unmarked) [RQ-00311651, reference compound] |  | 17 | 14 |  |
